Data on five compounds can be found in patent US4287194A, “Compositions with potentiated hypotensive effects” (priority 1978, dated 1981).

Data set [1] concerns genetically hypertensive awake rats. The data set can be described thus: Hypotensive effect on awake rats suffering from genetic hypertension (method of Eaton, modified). The class given is in vivo, Wistar-Okamoto rats.
Data set [2] concerns awake dogs with renal hypertension. The data set can be described thus: Hypotensive effect on awake dogs suffering from renal hypertension (Grollman operation). The class given is in vivo. From the text: (2) Determination of the hypotensive effect on awake dogs suffering from renal hypertension
The nature of data set [3]: Oral acute toxicity (LD50) of the individual components, one week observation. As to conditions: mouse, in vivo. As for the experimental part:
Based on the data given in points 1 and 2 above it can be stated that a considerable potentiating synergism appears with respect to the hypotensive effect when applying the compounds of formula (I) in combination with those of formula (V). In the following it was investigated whether this synergism also appears with respect to the toxicity. In the first test series the LD50 values of the individual components were determined on CFLP-mice. The compounds were administered orally, and the animals were kept under observation for one week. The LD50 values of the individual compounds are as follows: […]

Data set [4] in a line: Toxicity (mortality) of combinations: pre-treatment for one hour with 11,473 or 11,121, then pindolol. The arrangement: species or system CFLP-mice. The settings on record: mouse, in vivo, po. How it is done: Based on the data given in points 1 and 2 above it can be stated that a considerable potentiating synergism appears with respect to the hypotensive effect when applying the compounds of formula (I) in combination with those of formula (V). In the following it was investigated whether this synergism also appears with respect to the toxicity. In the first test series the LD50 values of the individual components were determined on CFLP-mice. The compounds were administered orally, and the animals were kept under observation for one week. The LD50 values of the individual compounds are as follows:
To determine the toxicity values of the combinations dosages calculated on the basis of the isobole construction principle were applied. The animals were pre-treated for one hour with various dosages of 11,473 or 11,121, and then varying dosages of pindolol were administered.

Several values for one entry are separate records, joined by “and”; a condition that tells them apart may be missing. Identical values can stand only once.

In general, LD50 refers to the dose at which mortality reaches 50%. `COC(=O)c1ccc(O)c(CON)c1.Cl` [11,121, 2-hydroxy-5-carbomethoxy-benzyloxyamine hydrochloride]: in data set [1] (50 mg/kg p.o.), the “Blood pressure after 2 hours” value is listed as 170.0 mmHg, the “Blood pressure after 5 hours” value is given as 163.0 mmHg and the “Blood pressure after 24 hours” value is recorded as 169.0 mmHg. In data set [1] (50 mg/kg p.o., basal value), the “Blood pressure, basal value” is recorded as 168.2 mmHg. Besides, in data set [2] (5 mg/kg p.o.), the “Blood pressure after 1 hour” value is listed as 170.0 mmHg, the “Blood pressure after 2 hours” value came to 167.5 mmHg, the “Blood pressure after 3 hours” value worked out at 175.0 mmHg and the “Blood pressure after 4 hours” value worked out at 165.0 mmHg. In addition, in data set [2] (5 mg/kg p.o.), the “Blood pressure after 5 hours” value was 172.5 mmHg; the “Blood pressure after 24 hours” value came out at 165.0 mmHg; the “Blood pressure, basal value” is recorded as 165.0 mmHg. Moreover, the LD50 at 168 h in data set [3] (p.o., one week observation) is 2900 mg/kg.
`Cl.NOCc1ccc([N+](=O)[O-])c(O)c1` [11,130, 3-hydroxy-4-nitro-benzyloxyamine hydrochloride]: in data set [1] (20 mg/kg p.o.), the “Blood pressure after 2 hours” value came out at 183.0 mmHg, the “Blood pressure after 5 hours” value is on record as 176.0 mmHg and the “Blood pressure after 24 hours” value is 172.0 mmHg. In data set [1] (20 mg/kg p.o., basal value), the “Blood pressure, basal value” is recorded as 174.0 mmHg.
In the case of `CCOC(=O)CC(C)=NNc1ccc(Cl)nn1` [11,473, N^1-(3-Chloro-6-pyridazinyl)-N^2-(1-carbethoxy-2-propylidene)-hydrazine], in data set [1] (10 mg/kg p.o.), the “Blood pressure after 2 hours” value was 194.0 mmHg, the “Blood pressure after 5 hours” value was found to be 197.0 mmHg and the “Blood pressure after 24 hours” value was 198.0 mmHg. Also, the “Blood pressure, basal value” in data set [1] (10 mg/kg p.o., basal value) is listed as 195.0 mmHg. For the same compound, the LD50 at 168 h in data set [3] (p.o., one week observation) amounted to 360 mg/kg.
As a reminder, the mortality is the percentage killed. Take `CC(C)NCC(O)COc1cccc2[nH]ccc12.Cl` (stereo not drawn) [Pindolol, 1-(4-indolyloxy)-3-isopropylamino-2-propanol hydrochloride]: the “Blood pressure after 2 hours” value in data set [1] (0.25 mg/kg p.o., hydrochloride) was 180.8 mmHg and 181.6 mmHg; in data set [1] (0.5 mg/kg p.o., hydrochloride) it was 161.4 mmHg and 191.2 mmHg and 172.1 mmHg; in data set [1] (1 mg/kg p.o.), 135.0 mmHg; in data set [1] (5 mg/kg p.o.), 154.5 mmHg; in data set [2] (0.1 mg/kg p.o.), 133.3 mmHg. Besides, the “Blood pressure after 5 hours” value in data set [1] (0.25 mg/kg p.o., hydrochloride) was 164.9 mmHg and 168.8 mmHg; in data set [1] (0.5 mg/kg p.o., hydrochloride), 160.5 mmHg and 188.3 mmHg and 160.8 mmHg; in data set [1] (1 mg/kg p.o.), 135.0 mmHg; in data set [1] (5 mg/kg p.o.), 124.5 mmHg; in data set [2] (0.1 mg/kg p.o.) it was 160.0 mmHg. For the same compound, the “Blood pressure after 24 hours” value is 183.4 mmHg and 188.8 mmHg in data set [1] (0.25 mg/kg p.o., hydrochloride); 150.5 mmHg and 188.9 mmHg and 188.6 mmHg in data set [1] (0.5 mg/kg p.o., hydrochloride); 151.1 mmHg in data set [1] (1 mg/kg p.o.); 161.0 mmHg in data set [1] (5 mg/kg p.o.); 153.3 mmHg in data set [2] (0.1 mg/kg p.o.). Further, the “Blood pressure, basal value” in data set [1] (0.25 mg/kg p.o., basal value (before treatment), hydrochloride) was 182.2 mmHg and 184.4 mmHg; in data set [1] (0.5 mg/kg p.o., basal value, hydrochloride), 165.0 mmHg and 200.0 mmHg and 200.3 mmHg; in data set [1] (1 mg/kg p.o., basal value) it was 164.4 mmHg; in data set [1] (5 mg/kg p.o., basal value) it was 172.5 mmHg; in data set [2] (0.1 mg/kg p.o.) it was 156.7 mmHg. Further, in data set [1] (Rattus norvegicus, po, read-out: ED30% (dosage which decreases the blood pressure by 30% related to the value before treatment), p.o., given alone), the ED30 is approximately 5 mg/kg. Moreover, the “ED30% (dosage which decreases the blood pressure by 30% related to the value before treatment)” value in data set [1] (p.o., given alone, hydrochloride) is 5 mg/kg. In addition, in data set [2] (0.1 mg/kg p.o.), the “Blood pressure after 1 hour” value is on record as 133.3 mmHg. In addition, in data set [2] (0.1 mg/kg p.o.), the “Blood pressure after 3 hours” value came to 153.0 mmHg. Further, the “Blood pressure after 4 hours” value in data set [2] (0.1 mg/kg p.o.) is recorded as 156.7 mmHg. Further, in data set [3], the LD50 at 168 h is 300 mg/kg. The mortality in data set [4] (pindolol alone 60 mg/kg p.o.) was 0%; in data set [4] (pindolol alone 90 mg/kg p.o.) it was 0%; in data set [4] (pindolol alone 135 mg/kg p.o.), 8%; in data set [4] (pindolol alone 200 mg/kg p.o.), 16%; in data set [4] (pindolol alone 300 mg/kg p.o.), 46%; in data set [4] (pindolol alone 450 mg/kg p.o.) it was 75%.
Take `CC(C)NCC(O)COc1cccc2ccccc12.Cl` (stereo not drawn) [Propranolol, 1-(1-Naphthyloxy)-3-isopropylamino-2-propanol hydrochloride]: the “Blood pressure after 2 hours” value in data set [1] (1 mg/kg p.o.) is given as 170.0 mmHg; in data set [1] (5 mg/kg p.o.), 178.6 mmHg; in data set [1] (10 mg/kg p.o.), 170.0 mmHg. Also, the “Blood pressure after 5 hours” value in data set [1] (1 mg/kg p.o.) was 168.7 mmHg; in data set [1] (5 mg/kg p.o.), 175.9 mmHg; in data set [1] (10 mg/kg p.o.) it was 148.3 mmHg. Moreover, the “Blood pressure after 24 hours” value in data set [1] (1 mg/kg p.o.) is 157.5 mmHg; in data set [1] (5 mg/kg p.o.) it was 181.8 mmHg; in data set [1] (10 mg/kg p.o.), 163.7 mmHg. Also, the “Blood pressure, basal value” in data set [1] (1 mg/kg p.o., basal value) is on record as 167.5 mmHg; in data set [1] (5 mg/kg p.o., basal value), 186.4 mmHg; in data set [1] (10 mg/kg p.o., basal value), 178.0 mmHg. The compound also returned an ED15 in data set [1] (Rattus norvegicus, po) of approximately 10 mg/kg.
